# In ChEMBL document CHEMBL1129162, “Analogs of the orally active growth hormone secretagogue L-162,752” (Bioorg Med Chem Lett, 1996):
# Columns and labels:
# [1] = species: Rattus norvegicus; assay: In vitro for growth hormone release by using rat pituitary cell assay.; format: functional; conditions: Pituitary gland cell
# [2] = pKa was determined; format: physicochemical
# [3] = species: Rattus norvegicus; assay: Compound was tested in vitro for growth hormone release by using rat pituitary cell assay.; format: functional, Pituitary gland cell
pKa [2],SMILES,EC50 [1],Stimulation [3]
–,C[C@@H](N)C(=O)N[C@H](Cc1c[nH]c2ccccc12)C(=O)N1CCC2(CCc3ccccc32)CC1,1000 nM,–
–,C[C@H](O)CNC(C)(C)CC(=O)N[C@H](Cc1c[nH]c2ccccc12)C(=O)N1CCC2(CCc3ccccc32)CC1,2.6 nM,–
5.9,NC1(C(=O)N[C@H](Cc2c[nH]c3ccccc23)C(=O)N2CCC3(CCc4ccccc43)CC2)CC1,2100 nM,–
–,O=C(N[C@H](Cc1c[nH]c2ccccc12)C(=O)N1CCC2(CCc3ccccc32)CC1)C1CCCNC1 (stereo partly specified),90 nM,–
–,C[C@H](N)C(=O)N[C@H](Cc1c[nH]c2ccccc12)C(=O)N1CCC2(CCc3ccccc32)CC1,840 nM,–
–,CC(C)(N)CC(=O)N[C@@H]1CCc2ccccc2N(Cc2ccc(-c3ccccc3-c3nn[nH]n3)cc2)C1=O,60 nM,–
–,O=C(N[C@H](Cc1c[nH]c2ccccc12)C(=O)N1CCC2(CCc3ccccc32)CC1)C1CCNCC1,100 nM,–
–,CC(C)(CC(=O)N[C@H](Cc1c[nH]c2ccccc12)C(=O)N1CCC2(CCc3ccccc32)CC1)NC[C@H](O)CO,16 nM,–
7.9,CC(C)(N)C(=O)N[C@H](Cc1c[nH]c2ccccc12)C(=O)N1CCC2(CCc3ccccc32)CC1 [L-162752],14 nM,–
–,O=C(N[C@H](Cc1c[nH]c2ccccc12)C(=O)N1CCC2(CCc3ccccc32)CC1)C1CCCCN1 (stereo partly specified),1900 nM,–
–,C[C@H](O)CNC(C)(C)C(=O)N[C@H](Cc1c[nH]c2ccccc12)C(=O)N1CCC2(CCc3ccccc32)CC1,700 nM,–
–,NC1(C(=O)N[C@H](Cc2c[nH]c3ccccc23)C(=O)N2CCC3(CCc4ccccc43)CC2)CCCC1,2600 nM,–
–,NCC(=O)N[C@H](Cc1c[nH]c2ccccc12)C(=O)N1CCC2(CCc3ccccc32)CC1,2000 nM,–
–,NC1(C(=O)N[C@H](Cc2c[nH]c3ccccc23)C(=O)N2CCC3(CCc4ccccc43)CC2)CCCCC1,–,92%
–,O=C(NC(Cc1c[nH]c2ccccc12)C(=O)N1CCC2(CCc3ccccc32)CC1)NC1CN2CCC1CC2 (stereo unspecified) [SPIROPIPERIDINE],50 nM,–
–,C[C@](N)(CO)C(=O)N[C@H](Cc1c[nH]c2ccccc12)C(=O)N1CCC2(CCc3ccccc32)CC1,600 nM,–
–,CC(C)(N)C(=O)N[C@@H](Cc1c[nH]c2ccccc12)C(=O)N1CCC2(CCc3ccccc32)CC1,10000 nM,–
–,C[C@@](N)(CO)C(=O)N[C@H](Cc1c[nH]c2ccccc12)C(=O)N1CCC2(CCc3ccccc32)CC1,48 nM,–
–,CC(C)(N)CC(=O)N[C@H](Cc1c[nH]c2ccccc12)C(=O)N1CCC2(CCc3ccccc32)CC1,76 nM,–
